Patent US20080057113A1, “Pharmaceutical Anti-Herpetic Composition, Method for Producing a Dosage Form Based Thereon and Method for the Use Thereof” (priority 2003, published 2008)

Tested on: herpetic infection
Assay: Effectiveness of treating herpetic infection upon incorporation of isoleucine
Format: in vivo
Settings: isoleucine incorporated into the composition
Protocol: The effectiveness of treating herpetic infection increases to a considerable extent upon incorporation of isoleucine into the composition, by 10-28% as compared to control. Isoleucine may be contained in the formulation of the preparation in an amount of 0.11-0.22 g per 100 ml of composition.

## CC[C@H](C)[C@H](N)C(=O)O [isoleucine]
  Increase of effectiveness of treating herpetic infection as compared to control: 10-28%
